Assays:
PI5P4Kγ+ = PI5P4Kγ+ (Homo sapiens, UniProt Q8TBX8, D138G/D197E/E133P/E135D/E153T/E196G/G136S/G139A/N195G/S132L/S134N); assay: Thermal shift assay; conditions: read-out: ΔTm PI5P4Kγ+
PLK1 = PLK1 (Homo sapiens, UniProt P53350); assay: Kinase panel, radiometric 33P filter binding; conditions: read-out: % activity remaining
Excerpt: (§2) filter binding assay using 33P-g-ATPat the MRC PPU International Centre for Kinase Profiling, University of

MEKK1 = MEKK1 (Homo sapiens, UniProt Q13233); assay: Kinase panel, radiometric 33P filter binding; conditions: read-out: % activity remaining
Excerpt: as §2

EPH-A2 = EPH-A2 (Homo sapiens, UniProt P29317); assay: Kinase panel, radiometric 33P filter binding; conditions: read-out: % activity remaining
Chain of EPH-A2 (P29317 24-976): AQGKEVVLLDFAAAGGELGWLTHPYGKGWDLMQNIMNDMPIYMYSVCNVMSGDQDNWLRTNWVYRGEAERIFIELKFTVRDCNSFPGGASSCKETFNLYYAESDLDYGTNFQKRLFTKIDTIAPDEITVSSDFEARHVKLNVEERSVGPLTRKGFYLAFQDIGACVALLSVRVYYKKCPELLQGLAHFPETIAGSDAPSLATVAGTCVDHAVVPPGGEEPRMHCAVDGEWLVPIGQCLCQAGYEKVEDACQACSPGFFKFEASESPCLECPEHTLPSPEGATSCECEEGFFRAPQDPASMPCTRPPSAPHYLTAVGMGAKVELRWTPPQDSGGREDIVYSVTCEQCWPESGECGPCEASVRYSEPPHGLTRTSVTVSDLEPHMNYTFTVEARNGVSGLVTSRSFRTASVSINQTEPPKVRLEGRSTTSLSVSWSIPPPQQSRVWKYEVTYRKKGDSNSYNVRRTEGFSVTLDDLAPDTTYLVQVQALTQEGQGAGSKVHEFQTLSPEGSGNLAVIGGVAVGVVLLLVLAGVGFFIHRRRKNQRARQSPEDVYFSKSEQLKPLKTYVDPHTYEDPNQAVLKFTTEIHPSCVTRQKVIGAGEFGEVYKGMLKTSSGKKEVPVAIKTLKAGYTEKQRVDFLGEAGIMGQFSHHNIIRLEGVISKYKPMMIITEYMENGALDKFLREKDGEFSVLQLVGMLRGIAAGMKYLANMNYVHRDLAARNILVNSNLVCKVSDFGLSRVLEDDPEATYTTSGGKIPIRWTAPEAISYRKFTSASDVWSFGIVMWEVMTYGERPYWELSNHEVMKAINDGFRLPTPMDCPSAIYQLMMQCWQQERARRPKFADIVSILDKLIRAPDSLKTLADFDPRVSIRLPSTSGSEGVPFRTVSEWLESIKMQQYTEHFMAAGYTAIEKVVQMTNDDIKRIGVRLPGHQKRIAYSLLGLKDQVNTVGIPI
Excerpt: as §2

IKKe = IKKe (Homo sapiens, UniProt Q14164); assay: Kinase panel, radiometric 33P filter binding; conditions: read-out: % activity remaining
Excerpt: as §2

ERK8 = ERK8 (Homo sapiens, UniProt Q8TD08); assay: Kinase panel, radiometric 33P filter binding; conditions: read-out: % activity remaining
Excerpt: as §2

p38a MAPK = p38a MAPK (Homo sapiens, UniProt Q16539); assay: Kinase panel, radiometric 33P filter binding; conditions: read-out: % activity remaining
Chain of p38a MAPK (Q16539 whole entry): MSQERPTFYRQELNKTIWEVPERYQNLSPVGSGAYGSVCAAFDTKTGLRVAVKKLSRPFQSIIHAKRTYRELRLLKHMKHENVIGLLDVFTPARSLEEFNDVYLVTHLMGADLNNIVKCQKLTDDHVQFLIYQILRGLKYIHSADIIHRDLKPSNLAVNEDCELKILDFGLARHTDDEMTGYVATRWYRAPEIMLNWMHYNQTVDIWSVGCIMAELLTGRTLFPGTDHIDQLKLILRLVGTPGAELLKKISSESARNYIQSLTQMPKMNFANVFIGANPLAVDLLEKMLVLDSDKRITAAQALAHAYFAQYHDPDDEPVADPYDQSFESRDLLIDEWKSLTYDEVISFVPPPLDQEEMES
Excerpt: as §2

MSK1 = MSK1 (Homo sapiens, UniProt O75582); assay: Kinase panel, radiometric 33P filter binding; conditions: read-out: % activity remaining
Chain of MSK1 (O75582 whole entry): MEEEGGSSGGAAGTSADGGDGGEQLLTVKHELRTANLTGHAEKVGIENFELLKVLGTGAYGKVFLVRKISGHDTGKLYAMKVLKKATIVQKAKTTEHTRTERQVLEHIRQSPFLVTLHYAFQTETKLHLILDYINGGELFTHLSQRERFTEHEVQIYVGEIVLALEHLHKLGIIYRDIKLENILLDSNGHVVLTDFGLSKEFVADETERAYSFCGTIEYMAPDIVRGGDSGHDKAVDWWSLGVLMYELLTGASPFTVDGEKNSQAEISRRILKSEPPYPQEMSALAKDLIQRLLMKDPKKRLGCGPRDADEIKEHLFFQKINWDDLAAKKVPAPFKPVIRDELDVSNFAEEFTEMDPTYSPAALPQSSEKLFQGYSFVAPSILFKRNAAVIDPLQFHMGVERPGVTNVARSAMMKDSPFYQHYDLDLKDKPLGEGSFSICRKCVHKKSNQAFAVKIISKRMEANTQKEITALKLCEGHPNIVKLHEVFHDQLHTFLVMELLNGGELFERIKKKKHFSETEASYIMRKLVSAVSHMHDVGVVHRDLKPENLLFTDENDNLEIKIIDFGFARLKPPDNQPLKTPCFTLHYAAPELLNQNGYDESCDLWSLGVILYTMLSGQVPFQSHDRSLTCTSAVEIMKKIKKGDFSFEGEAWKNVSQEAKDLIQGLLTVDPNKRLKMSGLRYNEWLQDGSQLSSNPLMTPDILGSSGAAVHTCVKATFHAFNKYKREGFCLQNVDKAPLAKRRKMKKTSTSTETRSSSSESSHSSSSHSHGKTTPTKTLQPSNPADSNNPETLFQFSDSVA

CK2 = CK2 (Homo sapiens, UniProt P68400); assay: Kinase panel, radiometric 33P filter binding; conditions: read-out: % activity remaining
Excerpt: as §2

SmMLCK = SmMLCK (Homo sapiens, UniProt Q15746); assay: Kinase panel, radiometric 33P filter binding; assay type: biochemical
Chain of SmMLCK (Q15746 923-1914): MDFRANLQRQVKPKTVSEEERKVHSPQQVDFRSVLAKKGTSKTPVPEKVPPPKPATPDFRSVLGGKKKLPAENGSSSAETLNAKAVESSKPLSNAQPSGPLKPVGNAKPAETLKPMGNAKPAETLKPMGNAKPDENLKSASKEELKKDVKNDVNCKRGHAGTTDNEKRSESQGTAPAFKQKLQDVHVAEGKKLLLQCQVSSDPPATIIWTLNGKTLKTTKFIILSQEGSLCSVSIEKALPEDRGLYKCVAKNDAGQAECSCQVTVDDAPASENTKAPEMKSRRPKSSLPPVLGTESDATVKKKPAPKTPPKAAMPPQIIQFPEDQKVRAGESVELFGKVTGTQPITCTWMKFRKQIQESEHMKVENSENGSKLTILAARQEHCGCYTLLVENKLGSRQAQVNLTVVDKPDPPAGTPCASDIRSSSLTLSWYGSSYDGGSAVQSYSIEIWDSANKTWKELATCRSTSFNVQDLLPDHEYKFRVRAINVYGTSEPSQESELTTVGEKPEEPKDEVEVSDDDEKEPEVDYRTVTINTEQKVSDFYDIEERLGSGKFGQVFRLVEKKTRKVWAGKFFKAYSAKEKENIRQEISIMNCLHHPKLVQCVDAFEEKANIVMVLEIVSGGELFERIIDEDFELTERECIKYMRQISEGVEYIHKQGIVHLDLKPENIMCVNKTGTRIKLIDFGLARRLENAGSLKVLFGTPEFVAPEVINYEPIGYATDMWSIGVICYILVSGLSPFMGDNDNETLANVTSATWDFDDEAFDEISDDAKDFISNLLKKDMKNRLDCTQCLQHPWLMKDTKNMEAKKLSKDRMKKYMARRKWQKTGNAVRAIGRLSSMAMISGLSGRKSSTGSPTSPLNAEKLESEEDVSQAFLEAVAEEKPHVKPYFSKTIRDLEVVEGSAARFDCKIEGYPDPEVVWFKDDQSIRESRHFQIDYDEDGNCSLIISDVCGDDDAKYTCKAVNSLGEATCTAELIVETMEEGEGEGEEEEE
Excerpt: (§1) Kinase % activity remaining s.d.

CDK9-Cyclin T1 = CDK9-Cyclin T1 (Homo sapiens, UniProt P50750); assay: Kinase panel, radiometric 33P filter binding; assay type: biochemical; conditions: CDK9-Cyclin T1, 10 μM
Excerpt: as §1

ABL = ABL (Homo sapiens, UniProt P00519); assay: Kinase panel, radiometric 33P filter binding; assay type: biochemical
Excerpt: as §1

TTK = TTK (Homo sapiens, UniProt P33981); assay: Kinase panel, radiometric 33P filter binding; conditions: read-out: % activity remaining
Excerpt: as §2

IRR = IRR (Homo sapiens, UniProt P14616); assay: Kinase panel, radiometric 33P filter binding; conditions: read-out: % activity remaining
Excerpt: as §2

GSK3b = GSK3b (Homo sapiens, UniProt P49841); assay: Kinase panel, radiometric 33P filter binding; conditions: read-out: % activity remaining
Excerpt: as §2

ULK1 = ULK1 (Homo sapiens, UniProt O75385); assay: Kinase panel, radiometric 33P filter binding; conditions: read-out: % activity remaining
Excerpt: as §2

EPH-B4 = EPH-B4 (Homo sapiens, UniProt P54760); assay: Kinase panel, radiometric 33P filter binding; conditions: read-out: % activity remaining
Excerpt: as §2

YES1 = YES1 (Homo sapiens, UniProt P07947); assay: Kinase panel, radiometric 33P filter binding; conditions: read-out: % activity remaining
MAP4K3 = MAP4K3 (Homo sapiens, UniProt Q8IVH8); assay: Kinase panel, radiometric 33P filter binding; conditions: read-out: % activity remaining
Excerpt: as §2

TESK1 = TESK1 (Homo sapiens, UniProt Q15569); assay: Kinase panel, radiometric 33P filter binding; conditions: read-out: % activity remaining
Excerpt: as §2

MST3 = MST3 (Homo sapiens, UniProt Q9Y6E0); assay: Kinase panel, radiometric 33P filter binding; conditions: read-out: % activity remaining
CHK2 = CHK2 (Homo sapiens, UniProt O96017); assay: Kinase panel, radiometric 33P filter binding; conditions: read-out: % activity remaining
Excerpt: as §2

MARK3 = MARK3 (Homo sapiens, UniProt P27448); assay: Kinase panel, radiometric 33P filter binding; conditions: read-out: % activity remaining
Excerpt: as §2

DYRK3 = DYRK3 (Homo sapiens, UniProt O43781); assay: Kinase panel, radiometric 33P filter binding; conditions: read-out: % activity remaining
Excerpt: as §2

CK1γ2 = CK1γ2 (Homo sapiens, UniProt P78368); assay: Kinase panel, radiometric 33P filter binding; conditions: read-out: % activity remaining
Excerpt: as §2

PKBb = PKBb (Homo sapiens, UniProt P31751); assay: Kinase panel, radiometric 33P filter binding; conditions: read-out: % activity remaining
Excerpt: as §2

PAK6 = PAK6 (Homo sapiens, UniProt Q9NQU5); assay: Kinase panel, radiometric 33P filter binding; conditions: read-out: % activity remaining
PAK2 = PAK2 (Homo sapiens, UniProt Q13177); assay: Kinase panel, radiometric 33P filter binding
Chain of PAK2 (Q13177 whole entry): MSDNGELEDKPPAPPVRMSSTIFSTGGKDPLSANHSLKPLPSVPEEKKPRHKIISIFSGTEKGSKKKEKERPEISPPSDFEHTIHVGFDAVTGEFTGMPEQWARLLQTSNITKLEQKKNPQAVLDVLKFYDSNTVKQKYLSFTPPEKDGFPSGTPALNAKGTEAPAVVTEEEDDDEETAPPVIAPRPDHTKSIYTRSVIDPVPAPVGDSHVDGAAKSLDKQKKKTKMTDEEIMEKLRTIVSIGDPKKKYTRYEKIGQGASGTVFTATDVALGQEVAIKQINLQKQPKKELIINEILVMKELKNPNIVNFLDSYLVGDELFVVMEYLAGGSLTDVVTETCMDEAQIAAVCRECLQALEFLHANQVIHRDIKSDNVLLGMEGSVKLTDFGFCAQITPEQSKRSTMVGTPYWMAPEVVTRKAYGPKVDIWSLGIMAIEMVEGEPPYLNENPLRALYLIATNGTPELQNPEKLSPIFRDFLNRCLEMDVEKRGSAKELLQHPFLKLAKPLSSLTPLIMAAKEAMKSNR

SRPK1 = SRPK1 (Homo sapiens, UniProt Q96SB4); assay: Kinase panel, radiometric 33P filter binding; conditions: read-out: % activity remaining
Excerpt: as §2

IRAK1 = IRAK1 (Homo sapiens, UniProt P51617); assay: Kinase panel, radiometric 33P filter binding; conditions: read-out: % activity remaining
NEK2a = NEK2a (Homo sapiens, UniProt P51955); assay: Kinase panel, radiometric 33P filter binding; conditions: read-out: % activity remaining
Excerpt: as §2

TTBK1 = TTBK1 (Homo sapiens, UniProt Q5TCY1); assay: Kinase panel, radiometric 33P filter binding; conditions: read-out: % activity remaining
Chain of TTBK1 (Q5TCY1 whole entry): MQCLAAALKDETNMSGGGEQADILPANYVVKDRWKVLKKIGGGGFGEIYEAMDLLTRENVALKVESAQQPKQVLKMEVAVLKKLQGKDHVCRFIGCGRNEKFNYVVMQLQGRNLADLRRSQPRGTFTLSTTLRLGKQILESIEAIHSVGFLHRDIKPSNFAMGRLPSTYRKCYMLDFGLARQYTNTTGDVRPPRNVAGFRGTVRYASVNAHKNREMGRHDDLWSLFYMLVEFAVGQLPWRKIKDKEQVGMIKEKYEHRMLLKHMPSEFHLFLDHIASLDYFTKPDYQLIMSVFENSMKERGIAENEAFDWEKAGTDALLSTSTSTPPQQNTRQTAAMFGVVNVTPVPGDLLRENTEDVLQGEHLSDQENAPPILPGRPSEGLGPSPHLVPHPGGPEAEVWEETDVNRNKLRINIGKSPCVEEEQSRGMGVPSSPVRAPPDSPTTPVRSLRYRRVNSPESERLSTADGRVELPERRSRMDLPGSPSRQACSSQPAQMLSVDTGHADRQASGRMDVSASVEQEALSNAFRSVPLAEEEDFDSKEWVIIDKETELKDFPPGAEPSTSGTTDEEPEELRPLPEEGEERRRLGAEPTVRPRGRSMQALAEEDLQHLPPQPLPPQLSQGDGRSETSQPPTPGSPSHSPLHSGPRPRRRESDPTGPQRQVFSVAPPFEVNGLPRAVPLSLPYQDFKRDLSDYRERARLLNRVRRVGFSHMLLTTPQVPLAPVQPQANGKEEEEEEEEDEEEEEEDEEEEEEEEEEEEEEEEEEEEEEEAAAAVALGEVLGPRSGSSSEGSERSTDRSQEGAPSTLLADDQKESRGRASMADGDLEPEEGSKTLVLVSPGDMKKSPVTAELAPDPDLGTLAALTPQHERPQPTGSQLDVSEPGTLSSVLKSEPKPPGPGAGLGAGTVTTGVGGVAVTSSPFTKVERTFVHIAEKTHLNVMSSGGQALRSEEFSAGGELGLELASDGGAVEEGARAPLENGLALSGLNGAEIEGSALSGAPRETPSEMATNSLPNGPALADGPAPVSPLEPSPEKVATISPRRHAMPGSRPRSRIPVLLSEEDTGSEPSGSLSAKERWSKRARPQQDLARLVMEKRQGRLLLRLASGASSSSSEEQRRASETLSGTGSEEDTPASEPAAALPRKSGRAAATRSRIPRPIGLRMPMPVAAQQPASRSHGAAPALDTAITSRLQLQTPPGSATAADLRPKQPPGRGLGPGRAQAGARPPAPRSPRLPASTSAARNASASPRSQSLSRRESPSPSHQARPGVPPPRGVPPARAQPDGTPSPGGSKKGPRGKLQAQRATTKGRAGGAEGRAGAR
Excerpt: as §2

MPSK1 = MPSK1 (Homo sapiens, UniProt O75716); assay: Kinase panel, radiometric 33P filter binding; conditions: read-out: % activity remaining
Excerpt: as §2

STK33 = STK33 (Homo sapiens, UniProt Q9BYT3); assay: Kinase panel, radiometric 33P filter binding; conditions: read-out: % activity remaining
Excerpt: as §2

ASK1 = ASK1 (Homo sapiens, UniProt Q99683); assay: Kinase panel, radiometric 33P filter binding; conditions: read-out: % activity remaining
Excerpt: as §2

PDGFRA = PDGFRA (Homo sapiens, UniProt P16234); assay: Kinase panel, radiometric 33P filter binding; conditions: read-out: % activity remaining
Excerpt: as §2

DYRK2 = DYRK2 (Homo sapiens, UniProt Q92630); assay: Kinase panel, radiometric 33P filter binding; conditions: read-out: % activity remaining
Excerpt: as §2

SMILES: FC(F)(F)c1ccccc1-c1nc(NCc2cccs2)c2ccccc2n1 [Compound 1, NIH-12848, reference compound]
- ΔTm at 63 µM (PI5P4Kγ+): 7.4 ± 0.6 °C

SMILES: CC(C)c1ccccc1-c1nc(NCc2ccccn2)c2c(ccn2C)n1 [Compound 40]
- remaining activity at 10 µM (PLK1): 97%
- remaining activity at 10 µM (MEKK1): 68%
- remaining activity at 10 µM (EPH-A2): 104%
- remaining activity at 10 µM (IKKe): 98%
- remaining activity at 10 µM (ERK8): 109%
- remaining activity at 10 µM (p38a MAPK): 100%
- remaining activity at 10 µM (MSK1): 95%
- remaining activity at 10 µM (CK2): 90%
- remaining activity at 10 µM (SmMLCK): 108%
- remaining activity at 10 µM (CDK9-Cyclin T1): 108%
- remaining activity at 10 µM (ABL): 108%
- remaining activity at 10 µM (TTK): 94%
- remaining activity at 10 µM (IRR): 99%
- remaining activity at 10 µM (GSK3b): 93%
- remaining activity at 10 µM (ULK1): 111%
- remaining activity at 10 µM (EPH-B4): 120%
- remaining activity at 10 µM (YES1): 115%
- remaining activity at 10 µM (MAP4K3): 91%
- remaining activity at 10 µM (TESK1): 114%
- remaining activity at 10 µM (MST3): 110%
- remaining activity at 10 µM (CHK2): 110%
- remaining activity at 10 µM (MARK3): 101%
- remaining activity at 10 µM (DYRK3): 128%
- remaining activity at 10 µM (CK1γ2): 97%
- remaining activity at 10 µM (PKBb): 75%
- remaining activity at 10 µM (PAK6): 95%
- % activity remaining (PAK2; PAK2, 10 μM, 10 µM): < 50%
- remaining activity at 10 µM (PAK2; read-out: % activity remaining, PAK2, 10 μM): 45%
- remaining activity at 10 µM (SRPK1): 93%
- remaining activity at 10 µM (IRAK1): 114%
- remaining activity at 10 µM (NEK2a): 103%
- remaining activity at 10 µM (TTBK1): 117%
- remaining activity at 10 µM (MPSK1): 106%
- remaining activity at 10 µM (STK33): 99%
- remaining activity at 10 µM (ASK1): 116%
- remaining activity at 10 µM (PDGFRA): 100%
- remaining activity at 10 µM (DYRK2): 106%
